Test results reported in article PMC4237514, “Novel amino-β-lactam derivatives as potent cholesterol absorption inhibitors” (European Journal of Medicinal Chemistry, 2014).
Several values for one entry are separate records, joined by “and”; a condition that tells them apart may be missing. Equal values may be shown once.

Assays:
[1] = MTT cytotoxicity assay in hNPC1L1/MDCKII cells; assay type: cell-based; conditions: dog, MDCKII cells stably expressing human NPC1L1 (hNPC1L1/MDCKII), read-out: LC50, hNPC1L1/MDCKII
Protocol: (§1) Cytotoxicity of amino alcohols 5, 6 and their diastereoisomeric mixture 5/6 was analyzed using MTT cell proliferation assay and the LC50 values were determined in MDCKII wild type, hNPC1L1/MDCKII, and HepG2 cells (Table 2). MDCKII cells stably expressing human Niemann-Pick C1-like protein 1 (hNPC1L1/MDCKII) (Figure S1) are a pharmacologically validated system for investigating NPC1L1-mediated cholesterol uptake. The LC50 values were higher than 100 μM and considered nontoxic in all three cell lines. […] In addition, we tested the in vitro cytotoxicity of ezetimibe 1 and compounds 5, 6, and 5/6 (70:30) in combination with micelles and found all LC50 values to be above 100 μM (Figure S2).
(§2) Madin–Darby Canine Kidney II (MDCKII) cells, MDCKII cells stably expressing human NPC1L1 (hNPC1L1/MDCKII), and human HepG2 liver cells were maintained in DMEM (Dulbecco's Modified Eagle Medium, Invitrogen, USA) containing 100 units/mL penicillin and 100 μg/mL streptomycin supplemented with 10% FCS (Sigma–Aldrich, Germany). The cells were grown at 37 °C in a humidified 5% CO2 incubator. Stable transfection of MDCKII cells with human NPC1L1 protein was performed using Lipofectamine LTX (Invitrogen, USA) according to the manufacturer's protocol. Selection with 1 mg/mL G418 (Sigma–Aldrich, Germany) was started 2 days after transfection. The concentration of G418 was decreased to 500 μg/mL after 14 days. Stably transfected cells were maintained in DMEM containing 100 units/mL penicillin and 100 μg/mL streptomycin supplemented with 10% FCS and 500 μg/mL G418.
(§3) MDCKII, hNPC1L1/MDCKII, and HepG2 cells were seeded in 96-well microtiter plates on day 0 at densities of 3000 cells/well. On day 1, tested compounds (73 mM stock solution in DMSO) were added in five consecutive 10-fold dilutions (10^−8 to 10^−4 mol/L) and incubated for 72 h. Cytotoxicity of the compounds was assessed on day 4 by the MTT cell proliferation assay (Sigma–Aldrich, Germany) which detects mitochondrial dehydrogenase activity in viable cells. The results are expressed as LC50 and the values for each compound were calculated from dose–response curves using linear regression analysis. Each concentration was tested in quadruplicate in three independent experiments. Toxicity of the compounds in combination with micelles was also tested using the same method. MDCKII and hNPC1L1/MDCKII were seeded in 96-well microtiter plates (150 μL medium/well) at a density of 2 × 10^5 cells/mL medium 24 h before the experiment. Micelles were prepared according to the modified method reported by Field et al.. In brief, 0.25 mM oleic acid, 50 μM cholesterol, 10 μM compactin, 50 μM mevalonate, 5 mM Na-taurocholate (Sigma–Aldrich, Germany) in DMEM/10% FCS were mixed and sonicated. […] Thereafter, cytotoxicity was determined using the MTT assay.

[2] = MTT cytotoxicity assay in MDCKII wild type cells; assay type: cell-based; conditions: dog, MDCKII wild type cells, read-out: LC50, MDCKII
Protocol: as §1, §2
MDCKII, hNPC1L1/MDCKII, and HepG2 cells were seeded in 96-well microtiter plates on day 0 at densities of 3000 cells/well. On day 1, tested compounds (73 mM stock solution in DMSO) were added in five consecutive 10-fold dilutions (10^−8 to 10^−4 mol/L) and incubated for 72 h. Cytotoxicity of the compounds was assessed on day 4 by the MTT cell proliferation assay (Sigma–Aldrich, Germany) which detects mitochondrial dehydrogenase activity in viable cells. The results are expressed as LC50 and the values for each compound were calculated from dose–response curves using linear regression analysis. Each concentration was tested in quadruplicate in three independent experiments. Toxicity of the compounds in combination with micelles was also tested using the same method. MDCKII and hNPC1L1/MDCKII were seeded in 96-well microtiter plates (150 μL medium/well) at a density of 2 × 10^5 cells/mL medium 24 h before the experiment. Micelles were prepared according to the modified method reported by Field et al.. In brief, 0.25 mM oleic acid, 50 μM cholesterol, 10 μM compactin, 50 μM mevalonate, 5 mM Na-taurocholate (Sigma–Aldrich, Germany) in DMEM/10% FCS were mixed and sonicated. Following the micellar formation, compounds 1, 5, 6, and 5/6 (70:30) (73 mM stock solution in DMSO) were added to the medium and vortexed to obtain the final concentrations of the compounds (25, 50, 100, 150, 200 μM) and applied to the cells for 1 h. Thereafter, cytotoxicity was determined using the MTT assay.

[3] = MTT cytotoxicity assay in HepG2 cells; assay type: cell-based; conditions: human, read-out: LC50, HepG2
Protocol: as §1, §2, §3

cholesterol absorption = assay: In vivo acute cholesterol absorption; parameters: species or system C57BL/6 mice; conditions: mice; for In vivo inhibition (%) of cholesterol absorption, Duodenum / In vivo inhibition (%) of cholesterol absorption, Ileum / In vivo inhibition (%) of cholesterol absorption, Jejunum / In vivo inhibition (%) of cholesterol absorption, Liver / In vivo inhibition (%) of cholesterol absorption, Plasma: [3H]cholesterol reduction relative to vehicle
Protocol: In vivo, we first determined the consequences of ezetimibe 1 and amino alcohols 5 and 6 on cholesterol absorption. We therefore gavaged mice with 2 μCi [^3H]cholesterol and 10 mg/kg/day of each compound or vehicle, and radioactivity was measured in plasma, liver, and three equal parts of the intestine (duodenum, jejunum, ileum). Percentage of [^3H]cholesterol reduction is presented relative to vehicle, respectively. […] We therefore increased the dose to 20 mg/kg/day and determined inhibition of cholesterol absorption. The inhibition in duodenum and jejunum was similar to the lower dose, whereas in ileum it raised from 21% to 41% (Table 3). Decreased cholesterol absorption of 5 in the small intestine compared to ezetimibe 1 might be explained by the fact that 2-azetidinones are moderate acyl-coenzyme A:cholesterol acyltransferase inhibitors and their level of activity is highly structure-dependent. It might therefore be speculated that acyl-coenzyme A:cholesterol acyltransferase activity of amino alcohols 5 and 6 and their diastereoisomeric mixtures is altered compared to ezetimibe 1.
Male C57BL/6 mice aged 25–28 weeks were maintained under a 12 h light/12 h dark cycle in a temperature-controlled environment with free access to chow diet (Ssniff, Germany) and water. For 2 days, mice (n = 3–5) were fasted for 4 h and gavaged with corn oil (100 μl) (vehicle) containing ezetimibe 1 (10 mg/kg/day) or compounds 5, 6, and 5/6 (70:30) (10 or 20 mg/kg/day). On day 2, 90 min post vehicle or compound treatment, mice were gavaged with corn oil (200 μl) containing [^3H]cholesterol (2 μCi) ([1,2–3H(N)] cholesterol, 1 mCi/mL, ARC Inc., St. Louis, USA). Plasma, liver, and small intestines were collected 4 h post-gavage. Cholesterol uptake and absorption were determined as previously described.

[4] = pKa by spectrophotometric titration; assay type: physicochemical; conditions: λ 247 nm, pH 6–12, 20 °C
Protocol: We determined pKa values of the amino alcohols 5 (Fig. 9) and 6 (data not shown) using spectrophotometric titration.
Stock solution of amino alcohols 5 and 6 (160 μL, 2 mg/mL methanol) was added to NaCl solution in water (20 mL, 0.1 mol/L), thus resulting in a solution of each amino alcohol 5 and 6 in concentration of 4 × 10^−5 mol/L. Furthermore, solutions of NaOH (0.1 mol/L, 1 mol/L and 2 mol/L) were prepared in NaCl solution in water (100 mL, 0.1 mol/L). NaOH solutions (1.5–20 μL) were added to each solution of amino alcohol 5 or 6, pH values measured and UV spectra (λ 200–350 nm) recorded at pH 6–12. The titrations were performed at rt (20 °C) and inflection points of sigmoid curves at λ 247 nm were calculated as pKa values for both amino alcohols.

[5] = gavage 10 mg/kg/day for 2 days, 10 mg/kg/day

Compound	CC50 at 72 h [1] [µM]	CC50 at 72 h [2] [µM]	CC50 at 72 h [3] [µM]	In vivo inhibition (%) of cholesterol absorption, Duodenum (cholesterol absorption; gavage 20 mg/kg/day for 2 days) [%]	In vivo inhibition (%) of cholesterol absorption, Ileum (cholesterol absorption; gavage 20 mg/kg/day for 2 days) [%]	In vivo inhibition (%) of cholesterol absorption, Jejunum (cholesterol absorption; gavage 20 mg/kg/day for 2 days) [%]	In vivo inhibition (%) of cholesterol absorption, Liver (cholesterol absorption; gavage 20 mg/kg/day for 2 days) [%]	In vivo inhibition (%) of cholesterol absorption, Plasma (cholesterol absorption; gavage 20 mg/kg/day for 2 days) [%]	In vivo inhibition (%) of cholesterol absorption, Duodenum (cholesterol absorption; gavage 10 mg/kg/day for 2 days) [%]	In vivo inhibition (%) of cholesterol absorption, Ileum (cholesterol absorption; gavage 10 mg/kg/day for 2 days) [%]	In vivo inhibition (%) of cholesterol absorption, Jejunum (cholesterol absorption; gavage 10 mg/kg/day for 2 days) [%]	pKa [4]	In vivo inhibition (%) of cholesterol absorption, Liver (cholesterol absorption; [5])	In vivo inhibition (%) of cholesterol absorption, Plasma (cholesterol absorption; [5])	other results
O=C1[C@H](NCC(O)c2ccc(F)cc2)[C@@H](c2ccc(O)cc2)N1c1ccc(F)cc1 (mixture of isomers) [5/6 (70:30), (3R,4R)-3-[(2R/S)-2-(4-fluorophenyl)-2-hydroxyethylamino]-1-(4-fluorophenyl)-4-(4-hydroxyphenyl)azetidin-2-one]	> 100	> 100	> 100	49 ± 7	41 ± 21	48 ± 9	70 ± 5	64 ± 7							
O=C1[C@H](CC[C@H](O)c2ccc(F)cc2)[C@@H](c2ccc(O)cc2)N1c1ccc(F)cc1 [Compound 1, ezetimibe, reference compound]		> 100							65 ± 1	47 ± 3	61 ± 2				CC50 at 96 h ([1]; 72 h): 62.3 µM; CC50 at 96 h ([3]; 72 h): 69.7 µM; In vivo inhibition (%) of cholesterol absorption, Liver (cholesterol absorption; gavage 10 mg/kg/day for 2 days): 52 ± 3 %; In vivo inhibition (%) of cholesterol absorption, Plasma (cholesterol absorption; gavage 10 mg/kg/day for 2 days): 60 ± 6 %
O=C1[C@H](NC[C@H](O)c2ccc(F)cc2)[C@@H](c2ccc(O)cc2)N1c1ccc(F)cc1 [Compound 5]	> 100	> 100	> 100	18 ± 14		19 ± 16	33 ± 6	52 ± 7	23 ± 18		23 ± 13	9.35	44% and 44 ± 6 %	50% and 50 ± 8 %	reduction of radioactivity in the small intestine (cholesterol absorption; 10 mg/kg/day, small intestine overall, not statistically significant): ~22%; In vivo inhibition (%) of cholesterol absorption, Ileum (cholesterol absorption; [5]): 21% and 21 ± 20%; In vivo inhibition (%) of cholesterol absorption, Ileum (cholesterol absorption; gavage 20 mg/kg/day for 2 days, 20 mg/kg/day): 41% and 41 ± 12 %
O=C1[C@H](NC[C@@H](O)c2ccc(F)cc2)[C@@H](c2ccc(O)cc2)N1c1ccc(F)cc1 [Compound 6, (3R,4R)-3-[(2S)-2-(4-fluorophenyl)-2-hydroxyethylamino]-1-(4-fluorophenyl)-4-(4-hydroxyphenyl)azetidin-2-one]	> 100	> 100	> 100	35 ± 9	60 ± 9	26 ± 8	49 ± 10	38 ± 11	43 ± 11	58 ± 8	37 ± 11	9.35	47% and 47 ± 0 %	32% and 32 ± 5 %	inhibition of [3H]cholesterol in the ileum (cholesterol absorption; span over the 10 and 20 mg/kg/day groups): 58–60%
